Results reported in US8507445B2, “Compositions and methods of use of targeting peptides for diagnosis and therapy of human cancer” (Board of Regents, The University of Texas System, priority 2002, dated 2013).
“Also recorded” adds a separate entry of the source.

Assays:
MDA-MB-435 cells = assay: Enhancement of phage transduction by genotoxic agents or trans-complementation; format: cell-based, human; conditions: cells infected with targeted phage, 72 hours post-infection; drugs 10 μM
Method: Semi-confluent MDA-MB-435 cells were infected with 10^5 TU of phage per cell for 4 hours in serum free media, after which fresh medium supplemented with FCS was added (no phage were washed out or removed). In some experiments, a phage admixture of forward and reverse clones at 10^10 TU (forward/reverse molar ratio=1) was tested. Next, cells were incubated for 36 hours followed by the addition of genotoxic drugs (topotecan, 10 μM; cisplatin, 10 μM) or administration of UV radiation (15 J/m^2) with a cross-linker apparatus (UV Stratalinker Model 2400; Stratagene). At 72 hours post-infection, the cells were analyzed for transduction of a reporter gene (β-gal or GFP), and gene expression was normalized per cell number relative to controls.

prostate = assay: In vivo phage display in a human patient, tripeptide motif analysis; conditions: motifs in peptides isolated from prostate, compared with unselected phage library
Description: A large-scale preparation of a CX7C (C, cysteine; X, any amino acid residue) phage display random peptide library was optimized to create the highest possible insert diversity (Pasqualini et al., 2000). The diversity of the library was about 2×10^8 and its final titer was about 10^12 transducing units (TU)/ml. For biopanning with human subjects, use of a large-scale phage display library (diversity about 2×10^8) is advantageous compared to the smaller scale libraries used in mouse studies. Short-term intravenous infusion of the phage library (a total dose of 10^14 phage TU suspended in 100 ml of saline) into the patient was followed by multiple representative tissue biopsies. Prostate and liver samples were obtained by needle biopsy under ultrasonographic guidance. Skin, fat tissue, and skeletal muscle samples were obtained by surgical excision. Bone marrow needle aspirates and core biopsies were also obtained. Histopathological diagnosis was determined by examination of frozen sections processed from tissues obtained at the bedside.
Triplicate samples were processed for host bacterial infection, phage recovery, and histopathological analysis. In brief, tissues were weighed, ground with a glass Dounce homogenizer, suspended in 1 ml of Dulbecco Modified Eagle's medium (DMEM) containing proteinase inhibitors (DMEM-prin; 1 mM PMSF, 20 μg/ml aprotinin, and 1 μg/ml leupeptin), vortexed, and washed three times with DMEM-prin. The human tissue homogenates were incubated with 1 ml of host bacteria (log phase E. coli K91kan; OD600˜2). Aliquots of the bacterial culture were plated onto Luria-Bertani agar plates containing 40 μg/ml tetracycline and 100 μg/ml of kanamycin. Plates were incubated overnight at 37° C. Bacterial colonies were processed for sequencing of phage inserts recovered from each tissue and from unselected phage library. Human samples were handled with universal blood and body fluid precautions.
A high-throughput character pattern recognition program (M.D. Anderson Cancer Center, Biostatistics, Houston, Tex.) was developed to automate the analysis of the peptide motifs derived from phage screenings. […]
In order to identify the motifs that were enriched in the screening, the count for each tripeptide motif within each tissue was compared with the count for that tripeptide motif within the unselected library. Starting from a CX7C peptide insert, counts were recorded for all overlapping interior tripeptide motifs, subject only to reflection and single-voting restrictions. […] The significance of association of a given allocation of counts was assessed by Fisher's exact test (one-tailed). […]

[1] = biological target: vascular endothelial growth factor receptor-1 (VEGFR1) (Homo sapiens, UniProt P17948); assay: Ligand-receptor binding assay in vitro with immobilized receptor; conditions: recombinant VEGFR1
Sequence of vascular endothelial growth factor receptor-1 (VEGFR1) (P17948 27-1338, species assumed): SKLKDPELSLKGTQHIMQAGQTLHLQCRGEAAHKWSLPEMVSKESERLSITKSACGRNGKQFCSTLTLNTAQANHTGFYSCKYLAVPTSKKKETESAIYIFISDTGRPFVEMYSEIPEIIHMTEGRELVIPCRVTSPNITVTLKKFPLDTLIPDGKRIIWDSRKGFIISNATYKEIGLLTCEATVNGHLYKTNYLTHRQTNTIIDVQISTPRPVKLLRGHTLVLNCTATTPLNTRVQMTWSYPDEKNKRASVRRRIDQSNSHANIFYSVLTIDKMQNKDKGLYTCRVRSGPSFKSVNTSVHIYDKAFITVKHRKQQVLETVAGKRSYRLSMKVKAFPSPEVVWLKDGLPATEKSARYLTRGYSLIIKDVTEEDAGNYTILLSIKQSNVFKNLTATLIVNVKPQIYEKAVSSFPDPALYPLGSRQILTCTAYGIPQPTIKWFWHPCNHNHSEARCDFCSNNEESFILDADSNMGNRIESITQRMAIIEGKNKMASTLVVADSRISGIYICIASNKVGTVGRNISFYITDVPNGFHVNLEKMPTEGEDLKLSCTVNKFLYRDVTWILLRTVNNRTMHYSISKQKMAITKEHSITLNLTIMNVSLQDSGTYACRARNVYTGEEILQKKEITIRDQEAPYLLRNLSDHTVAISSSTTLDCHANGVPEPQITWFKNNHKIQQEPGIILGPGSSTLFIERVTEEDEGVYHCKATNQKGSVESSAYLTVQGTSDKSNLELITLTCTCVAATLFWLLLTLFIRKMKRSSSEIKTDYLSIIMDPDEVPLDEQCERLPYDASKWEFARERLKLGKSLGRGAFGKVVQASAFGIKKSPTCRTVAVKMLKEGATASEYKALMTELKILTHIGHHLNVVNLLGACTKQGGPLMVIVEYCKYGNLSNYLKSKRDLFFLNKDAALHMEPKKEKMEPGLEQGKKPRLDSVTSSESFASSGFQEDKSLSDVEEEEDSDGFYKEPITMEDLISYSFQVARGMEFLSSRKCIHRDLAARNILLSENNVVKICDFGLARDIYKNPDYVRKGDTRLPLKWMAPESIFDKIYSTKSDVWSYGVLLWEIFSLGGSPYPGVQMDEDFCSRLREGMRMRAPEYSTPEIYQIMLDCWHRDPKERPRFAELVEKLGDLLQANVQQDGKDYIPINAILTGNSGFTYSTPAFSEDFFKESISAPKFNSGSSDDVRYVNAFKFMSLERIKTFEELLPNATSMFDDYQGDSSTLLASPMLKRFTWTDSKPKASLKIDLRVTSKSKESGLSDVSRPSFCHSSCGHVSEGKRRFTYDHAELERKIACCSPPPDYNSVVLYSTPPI
Method: (§1) Recombinant IL-11Rα vascular endothelial growth factor receptor-1 (VEGFR1) or leptin receptor (OB—R) were incubated with phage displaying the […] (SEQ ID NO:37) peptide. VEGFR1 was used as a representative vascular receptor, while OB—R was used because it shares a co-receptor with IL-11Rα. An unrelated phage clone displaying the peptide […] (SEQ ID NO:38) and insertless fd-tet phage were used as controls. […] Binding of […] (SEQ ID NO:37)-phage to IL-11Rα was specific, since it was inhibited by the native IL-11 ligand in a concentration-dependent manner (not shown). […] These observations with normal prostate tissues were followed by an examination of the expression of IL-11Rα in tumors, as discussed in the present Example.

leptin receptor (OB—R) = leptin receptor (OB—R) (Homo sapiens, UniProt P48357); assay: as above; conditions: recombinant OB—R
Sequence of leptin receptor (OB—R) (P48357 22-1165, species assumed): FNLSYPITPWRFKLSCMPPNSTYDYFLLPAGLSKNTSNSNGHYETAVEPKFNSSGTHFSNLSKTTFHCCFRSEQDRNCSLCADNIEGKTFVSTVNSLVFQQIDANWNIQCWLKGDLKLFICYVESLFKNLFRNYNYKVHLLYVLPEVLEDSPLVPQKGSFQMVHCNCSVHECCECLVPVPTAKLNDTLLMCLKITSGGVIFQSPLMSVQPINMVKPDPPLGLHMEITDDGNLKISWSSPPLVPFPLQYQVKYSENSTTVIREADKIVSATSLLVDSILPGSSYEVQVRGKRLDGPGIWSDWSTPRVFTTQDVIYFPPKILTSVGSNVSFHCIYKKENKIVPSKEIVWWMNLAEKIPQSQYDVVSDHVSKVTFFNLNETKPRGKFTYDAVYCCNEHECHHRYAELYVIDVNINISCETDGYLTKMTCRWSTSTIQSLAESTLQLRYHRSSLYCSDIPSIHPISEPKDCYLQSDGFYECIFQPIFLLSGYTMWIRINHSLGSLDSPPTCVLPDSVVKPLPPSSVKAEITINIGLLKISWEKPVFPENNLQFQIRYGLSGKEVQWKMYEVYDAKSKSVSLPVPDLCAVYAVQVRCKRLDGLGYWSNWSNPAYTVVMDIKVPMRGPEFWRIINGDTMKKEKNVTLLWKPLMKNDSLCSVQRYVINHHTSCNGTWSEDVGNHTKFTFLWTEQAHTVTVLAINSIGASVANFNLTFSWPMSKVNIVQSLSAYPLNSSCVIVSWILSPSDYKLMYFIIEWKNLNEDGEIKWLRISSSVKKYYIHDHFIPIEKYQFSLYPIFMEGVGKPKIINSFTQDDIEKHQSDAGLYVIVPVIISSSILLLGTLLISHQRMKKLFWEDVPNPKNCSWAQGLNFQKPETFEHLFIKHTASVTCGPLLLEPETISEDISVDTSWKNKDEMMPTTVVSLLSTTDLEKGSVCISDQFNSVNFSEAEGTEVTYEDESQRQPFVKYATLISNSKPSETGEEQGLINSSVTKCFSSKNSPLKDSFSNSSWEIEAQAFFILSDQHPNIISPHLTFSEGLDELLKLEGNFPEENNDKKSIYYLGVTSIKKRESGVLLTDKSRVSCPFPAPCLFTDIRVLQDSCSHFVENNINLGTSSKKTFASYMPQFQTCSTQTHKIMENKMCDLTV
Method: as §1

IL-11Rα = biological target: T1, IL-11Rα (Homo sapiens, UniProt Q14626); assay: as above; conditions: for phage binding to immobilized receptor: recombinant IL-11Rα
T1 sequence (Q14626 23-422): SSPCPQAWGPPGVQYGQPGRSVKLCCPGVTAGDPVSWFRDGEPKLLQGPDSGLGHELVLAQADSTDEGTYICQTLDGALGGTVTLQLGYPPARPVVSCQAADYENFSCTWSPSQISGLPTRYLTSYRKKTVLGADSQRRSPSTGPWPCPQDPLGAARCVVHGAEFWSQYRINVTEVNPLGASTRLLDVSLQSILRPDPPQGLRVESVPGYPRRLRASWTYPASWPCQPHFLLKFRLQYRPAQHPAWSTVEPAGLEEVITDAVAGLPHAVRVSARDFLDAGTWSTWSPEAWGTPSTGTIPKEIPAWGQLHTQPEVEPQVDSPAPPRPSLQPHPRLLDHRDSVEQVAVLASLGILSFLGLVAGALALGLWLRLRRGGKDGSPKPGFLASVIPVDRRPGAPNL
Method: as §1

[2] = tested on: immunoglobulins from the serum of metastatic prostate cancer patients; assay: Biopanning of CX6C phage library on IgGs from serum of prostate cancer patients A, B, C; format: binding, human; conditions: second and third rounds; patient A, B or C that yielded the peptide
Description: Sera was selected from patients diagnosed with androgen-dependent and androgen-independent prostate cancer. A CX6C peptide library was screened against this pool of IgGs in a two-step procedure. First, the peptide library was pre-cleared against a pool of purified IgGs from normal serum samples using Protein G affinity chromatography. This step removed peptides from the phage display library that bound to immunoglobulins from patients without prostate cancer. Next, the pre-cleared peptide library was screened against the pool of purified IgGs from the serum of prostate cancer patients. This step selected peptides binding specifically to IgGs elicited against prostate cancer.
A 6-mer cyclic peptide (CX6C) phage display library was used for the biopanning. To select peptides specific to the serum antibodies of cancer patients, a pre-clearing stage was employed to remove non-specific peptides by pre-absorbing the peptide library onto purified IgGs from pooled normal serum (five healthy male individuals). The pre-cleared peptide library was screened onto the purified IgGs from the serum of prostate cancer patients. In brief, 10^9 transducing units (T.U.) of a CX6C cyclic peptide phage library were incubated with IgG antibodies from 50 μl of normal serum immobilized on 50 μl of protein G (Gibco BRL) for 1 hour at 4° C. This was followed by affinity selection on the immobilized IgG antibodies from prostate cancer patient serum for 2 hours at 4° C. Phage peptides specifically bound to IgGs elicited against prostate cancer were eluted with 100 μl of 0.1 M glycine buffer, pH 2.2, neutralized by the addition of 10 μl 1M Tris pH 9.0, and used to infect E. coli strain K91. Ten-fold serial dilutions of the infected solution were spread onto agar plates containing 40 μg/ml of tetracycline and grown overnight. Two hundred colonies were picked, amplified, and precipitated for a subsequent round of panning. A total of three rounds were performed. Individual phage clones were picked for PCR and the insert DNA was sequenced.

[3] = tested on: serum antibodies of prostate cancer patients; assay: ELISA of serum reactivity against GST-fusion peptides; format: binding, human
Method: A 20 μg/ml solution of purified GST or GST-fusion proteins in 0.1M NaHCO3 was used to coat maxisorp multi-well plates (Nalge Nunc International Corporation) and incubated overnight at 4° C. The plates were blocked in a blocking buffer (4% milk, 2% casein, and 0.05% Tween-20) for 3-4 hours. A series of […] dilutions (1:100-1:1200) of sera from prostate cancer patients or healthy individuals was added and incubated for 1.5 hours and then washed five times with washing buffer (1% milk, 0.5% casein, and 0.025% Tween-20), followed by incubation at 4° C. with anti-human alkaline phosphatase-conjugated antibodies (Gibco). The plates were then washed six times in washing buffer and developed using p-NPP (Sigma) as a substrate. An automatic ELISA plate reader (BIO-TEK instrument) recorded the results at OD405 nm.
Probabilities of survival for each group were estimated using the Kaplan-Meier method. A log-rank test was implemented in order to detect significant differences between the groups. Reactivity was considered to be detected if the ratio between GST-peptide and GST alone was greater or equal to two by the ELISA data. A Log-Rank test was used to determine statistical differences between groups. A statistical CART analysis (Classification And Regression Tree) was used to identify the best cut-off point for determining reactivity to GRP78. In this method, the censored survival data were transformed into a single uncensored data value (the so-called “null martingale residual”), which was used as input into a standard regression tree algorithm. A cut-off point of 0.95 was determined by this program

skin = assay: Phage overlay assay on human tissue sections; format: binding
Description: (§2) To test the tissue specificity of the IL-11 peptide mimic, a phage overlay assay was developed to evaluate receptor-ligand interactions in tissue sections, using the motif RRAGGS (SEQ ID NO:34) (Arap et al., Nature Med. 8:121-127, 2002).

normal prostate = assay: Phage overlay assay on human tissue sections; format: binding
Description: as §2

adipose tissue = assay: Validation of adipose homing phage in vivo; set-up: species or system obese mice; conditions: mouse
Description: A substractive phage display protocol (see Example 8 below) was used to isolate fat targeting peptides from a genetically obese mouse (Zhang et al., Nature, 372:425-432, 1994; Pelleymounter et al., Science 269:540-543, 1994). Phage that had been subjected to biopanning in obese mice were post-cleared in a normal mouse. The fat-targeting peptides isolated included TRNTGNI (SEQ ID NO:72), FDGQDRS (SEQ ID NO:73); WGPKRL (SEQ ID NO:74); WGESRL (SEQ ID NO:75); VMGSVTG (SEQ ID NO:76), KGGRAKD (SEQ ID NO:77), RGEVLWS (SEQ ID NO:78), TREVHRS (SEQ ID NO:79) and HGQGVRP (SEQ ID NO:80).
The fat homing clones selected were: FA—KGGRAKD (SEQ ID NO:77), FC—RGEVLWS (SEQ ID NO:78), FE—TREVHRS (SEQ ID NO:79) and FX—VMGSVTG (SEQ ID NO:76).

Molecule: N.N.[Cl][Pt][Cl] [cisplatin]
- reporter gene transduction relative to controls (MDA-MB-435 cells): several fold higher

Molecule: CC[C@@]1(O)C(=O)OCc2c1cc1n(c2=O)Cc2cc3c(CN(C)C)c(O)ccc3nc2-1 [topotecan]
- reporter gene transduction relative to controls (MDA-MB-435 cells): several fold higher

Molecule: AGG [tripeptide motif isolated from prostate]
- Motif Frequency (prostate): 2.5

Molecule: CGRRAGGSC
- phage binding to immobilized receptor [1]: Neither OB—R nor VEGFR1 showed binding
- phage binding to immobilized receptor (leptin receptor (OB—R)): Neither OB—R nor VEGFR1 showed binding
- phage binding to immobilized receptor (IL-11Rα): significant amount of binding

Molecule: CNVSDKSC
- share of the clones analyzed [2]: 55%
- positive serum reactivity ([3]; 71 age-matched healthy men (control)): 7%
- positive serum reactivity ([3]; metastatic androgen-independent prostate cancer): 76%
- positive serum reactivity ([3]; organ-confined prostate cancer patients): 6%
- positive serum reactivity ([3]; patients with androgen-dependent tumors): 29%

Molecule: CRVDFSKGC [reference compound]
- phage binding to immobilized receptor (IL-11Rα): Neither of the control phage exhibited selective binding

Molecule: EGR [tripeptide motif isolated from prostate]
- Motif Frequency (prostate): 1.0

Molecule: GER [tripeptide motif isolated from prostate]
- Motif Frequency (prostate): 0.9

Molecule: GVL [tripeptide motif isolated from prostate]
- Motif Frequency (prostate): 2.3

Molecule: HGGVG [motif of a control phage that localized to skin tissue, reference compound]
- phage binding to tissue section (skin): specifically recognized blood vessels in the skin
- phage binding to tissue section (normal prostate): did not bind to prostate tissue

Molecule: KGGRAKD [FA]
- homing to adipose tissue compared to control fd-tet phage (adipose tissue): some elevation of homing to adipose tissue

Molecule: RGEVLWS [FC]
- homing to adipose tissue compared to control fd-tet phage (adipose tissue): some elevation of homing to adipose tissue

Molecule: RRAGGS [prostate-targeting motif, IL-11 peptide mimic]
- phage binding to tissue section (normal prostate): specifically bound to the endothelium and epithelium of normal prostate

Molecule: TREVHRS [FE]
- homing to adipose tissue compared to control fd-tet phage (adipose tissue): some elevation of homing to adipose tissue

Molecule: VMGSVTG [FX]
- homing to adipose tissue compared to control fd-tet phage (adipose tissue): some elevation of homing to adipose tissue; also recorded: several orders of magnitude higher adipose localization

B1: IL-11: native IL-11 ligand, cytokine (protein)
chain: PGPPPGPPRVSPDPRAELDSTVLLTRSLLADTRQLAAQLRDKFPADGDHNLDSLPTLAMSAGALGALQLPGVLTRLRADLLSYLRHVQWLRRAGGSSLKTLEPELGTLQARLDRLLRRLQLLMSRLALPQPPPDPPAPPLAPPSSAWGGIRAAHAILGGLHLTLDWAVRGLLLLKTRL
- inhibition of CGRRAGGSC-phage binding to IL-11Rα (IL-11Rα; concentration of about 0.1 nM): ~100%
